# Measured values as given in ChEMBL document CHEMBL5465560, “Selectivity Literature for EUbOPEN Chemogenomic Library” (2024).
# How the values were obtained:
# [1] = biological target: T1, Serine/threonine-protein kinase 17A (Homo sapiens) (UniProt Q9UEE5); conditions: at 10 µM
# T1 sequence (whole entry): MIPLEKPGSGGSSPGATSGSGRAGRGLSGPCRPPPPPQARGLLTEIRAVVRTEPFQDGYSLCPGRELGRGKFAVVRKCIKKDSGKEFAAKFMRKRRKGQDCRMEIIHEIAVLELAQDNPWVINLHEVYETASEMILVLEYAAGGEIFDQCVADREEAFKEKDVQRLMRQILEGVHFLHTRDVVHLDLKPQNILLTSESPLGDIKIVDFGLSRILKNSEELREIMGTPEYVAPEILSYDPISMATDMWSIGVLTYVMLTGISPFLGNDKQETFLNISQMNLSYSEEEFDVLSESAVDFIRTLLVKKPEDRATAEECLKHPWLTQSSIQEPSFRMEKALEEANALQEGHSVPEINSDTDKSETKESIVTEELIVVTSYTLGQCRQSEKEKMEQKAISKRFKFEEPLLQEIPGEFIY
# [2] = system: Mast/stem cell growth factor receptor Kit (Homo sapiens), P10721 [V559D,V654A]; conditions: at 10 µM
# Insulin receptor = Insulin receptor (Homo sapiens, UniProt P06213); assay: Selectivity interaction (Upstate Kinase Profiler service (Millipore)) EUB0000056c INSR; conditions: at 1 µM
# [3] = biological target: Calcium/calmodulin-dependent protein kinase type II subunit gamma (Homo sapiens) (UniProt Q13555); assay: Selectivity interaction (KinomeScan (DiscoverX)) EUB0001079a CAMK2G; conditions: at 1 µM
# [4] = biological target: TRAF2 and NCK-interacting protein kinase (Homo sapiens) (UniProt Q9UKE5); assay: Selectivity interaction (KinomeScan (DiscoverX)) EUB0001079a TNIK; conditions: at 1 µM
# [5] = biological target: Bromodomain-containing protein 3 (Homo sapiens) (UniProt Q15059); assay: Selectivity interaction (Human bromodomain panel (DSF assay)) EUB0000233b BRD3
# [6] = biological target: T2, Serine/threonine-protein kinase LATS1 (Homo sapiens) (UniProt O95835); conditions: at 10 µM
# T2 sequence (whole entry): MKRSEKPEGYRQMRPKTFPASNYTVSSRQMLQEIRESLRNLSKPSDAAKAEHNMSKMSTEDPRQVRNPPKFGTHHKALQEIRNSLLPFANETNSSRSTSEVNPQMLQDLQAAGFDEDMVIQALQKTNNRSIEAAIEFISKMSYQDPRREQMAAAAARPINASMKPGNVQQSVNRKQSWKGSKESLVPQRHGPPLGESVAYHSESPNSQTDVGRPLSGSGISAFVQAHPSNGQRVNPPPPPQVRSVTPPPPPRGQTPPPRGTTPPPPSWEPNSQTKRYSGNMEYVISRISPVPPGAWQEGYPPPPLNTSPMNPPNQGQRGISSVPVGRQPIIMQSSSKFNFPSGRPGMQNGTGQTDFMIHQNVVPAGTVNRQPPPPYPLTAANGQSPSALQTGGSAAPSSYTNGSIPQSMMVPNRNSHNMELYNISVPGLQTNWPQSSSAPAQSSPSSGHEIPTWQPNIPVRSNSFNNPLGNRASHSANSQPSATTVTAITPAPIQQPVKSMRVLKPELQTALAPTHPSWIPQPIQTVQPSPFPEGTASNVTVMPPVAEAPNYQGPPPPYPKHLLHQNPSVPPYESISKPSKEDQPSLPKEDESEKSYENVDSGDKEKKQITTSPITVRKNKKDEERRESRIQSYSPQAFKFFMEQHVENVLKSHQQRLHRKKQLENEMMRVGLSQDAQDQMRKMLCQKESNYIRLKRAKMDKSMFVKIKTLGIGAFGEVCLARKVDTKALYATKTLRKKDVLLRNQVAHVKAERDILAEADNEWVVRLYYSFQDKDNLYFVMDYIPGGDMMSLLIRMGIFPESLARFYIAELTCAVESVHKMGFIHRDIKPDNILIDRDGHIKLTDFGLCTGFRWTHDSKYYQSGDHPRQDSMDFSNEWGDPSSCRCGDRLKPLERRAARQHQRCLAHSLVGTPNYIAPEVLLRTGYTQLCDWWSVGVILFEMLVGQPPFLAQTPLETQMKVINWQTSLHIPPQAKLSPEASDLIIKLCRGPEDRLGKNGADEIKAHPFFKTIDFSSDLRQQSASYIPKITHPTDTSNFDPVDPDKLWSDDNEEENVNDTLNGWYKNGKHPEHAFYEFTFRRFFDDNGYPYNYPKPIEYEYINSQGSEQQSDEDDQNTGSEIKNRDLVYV
# [7] = biological target: Tyrosine-protein kinase Fyn (Homo sapiens) (UniProt P06241); assay: Selectivity interaction (ActivX KiNativ screen (kinase selectivity in THP-1 cell lysates)) EUB0000639a FYN; type: subcellular; conditions: lysate, at 0.01 µM
# [8] = biological target: Casein kinase II subunit alpha' (Homo sapiens) (UniProt P19784); assay: Selectivity interaction (KinomeScan (DiscoverX)) EUB0001619a CSNK2A2; conditions: at 1 µM
# Sequence of Mast/stem cell growth factor receptor Kit (Homo sapiens), P10721 [V559D,V654A] (P10721 whole entry V559D/V654A): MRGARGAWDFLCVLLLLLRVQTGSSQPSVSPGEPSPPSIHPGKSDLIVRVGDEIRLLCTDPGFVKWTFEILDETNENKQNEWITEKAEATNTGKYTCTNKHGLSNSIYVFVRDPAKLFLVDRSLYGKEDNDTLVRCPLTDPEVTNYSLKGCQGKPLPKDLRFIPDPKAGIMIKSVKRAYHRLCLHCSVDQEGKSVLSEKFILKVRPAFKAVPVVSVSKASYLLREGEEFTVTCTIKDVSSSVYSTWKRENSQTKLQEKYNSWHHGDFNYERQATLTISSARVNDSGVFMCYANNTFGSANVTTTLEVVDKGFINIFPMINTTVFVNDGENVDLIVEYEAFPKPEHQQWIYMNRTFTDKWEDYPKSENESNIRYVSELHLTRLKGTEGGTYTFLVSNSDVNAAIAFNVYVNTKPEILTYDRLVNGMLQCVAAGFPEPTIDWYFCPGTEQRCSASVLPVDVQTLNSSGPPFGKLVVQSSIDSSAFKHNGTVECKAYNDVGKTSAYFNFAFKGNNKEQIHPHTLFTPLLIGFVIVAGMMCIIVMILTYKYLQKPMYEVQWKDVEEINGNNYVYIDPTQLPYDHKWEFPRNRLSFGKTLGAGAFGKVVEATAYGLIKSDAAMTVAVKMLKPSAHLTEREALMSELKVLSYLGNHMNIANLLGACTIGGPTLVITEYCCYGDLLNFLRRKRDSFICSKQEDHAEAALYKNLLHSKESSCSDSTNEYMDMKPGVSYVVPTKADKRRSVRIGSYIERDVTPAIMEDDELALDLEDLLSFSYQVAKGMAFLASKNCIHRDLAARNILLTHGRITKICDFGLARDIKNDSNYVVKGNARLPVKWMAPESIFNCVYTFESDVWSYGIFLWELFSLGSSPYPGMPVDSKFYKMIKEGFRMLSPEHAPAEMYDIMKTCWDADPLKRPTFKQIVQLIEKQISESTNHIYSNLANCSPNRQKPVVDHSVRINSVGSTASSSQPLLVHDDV
# Sequence of Bromodomain-containing protein 3 (Homo sapiens) (Q15059 2-726 limits assumed): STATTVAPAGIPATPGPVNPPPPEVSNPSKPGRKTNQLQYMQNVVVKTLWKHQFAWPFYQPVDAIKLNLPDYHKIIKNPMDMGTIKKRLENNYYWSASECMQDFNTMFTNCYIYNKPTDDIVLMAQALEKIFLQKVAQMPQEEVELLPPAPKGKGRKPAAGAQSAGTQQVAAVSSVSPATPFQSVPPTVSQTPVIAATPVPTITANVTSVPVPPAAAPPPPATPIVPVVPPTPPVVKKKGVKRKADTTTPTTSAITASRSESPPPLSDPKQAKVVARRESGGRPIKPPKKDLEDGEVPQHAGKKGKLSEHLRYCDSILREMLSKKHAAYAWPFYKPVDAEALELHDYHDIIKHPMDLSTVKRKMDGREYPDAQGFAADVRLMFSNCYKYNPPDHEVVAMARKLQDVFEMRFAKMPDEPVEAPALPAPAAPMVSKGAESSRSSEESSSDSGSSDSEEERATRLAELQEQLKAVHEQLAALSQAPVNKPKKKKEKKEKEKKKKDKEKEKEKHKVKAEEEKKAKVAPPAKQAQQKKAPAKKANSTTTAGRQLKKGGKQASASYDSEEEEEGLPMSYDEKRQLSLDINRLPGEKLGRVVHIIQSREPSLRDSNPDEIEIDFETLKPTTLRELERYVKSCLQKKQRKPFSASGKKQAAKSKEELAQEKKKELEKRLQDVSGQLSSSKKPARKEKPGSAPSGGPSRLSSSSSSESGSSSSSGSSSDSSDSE
# Sequence of TRAF2 and NCK-interacting protein kinase (Homo sapiens) (Q9UKE5 whole entry, looked up): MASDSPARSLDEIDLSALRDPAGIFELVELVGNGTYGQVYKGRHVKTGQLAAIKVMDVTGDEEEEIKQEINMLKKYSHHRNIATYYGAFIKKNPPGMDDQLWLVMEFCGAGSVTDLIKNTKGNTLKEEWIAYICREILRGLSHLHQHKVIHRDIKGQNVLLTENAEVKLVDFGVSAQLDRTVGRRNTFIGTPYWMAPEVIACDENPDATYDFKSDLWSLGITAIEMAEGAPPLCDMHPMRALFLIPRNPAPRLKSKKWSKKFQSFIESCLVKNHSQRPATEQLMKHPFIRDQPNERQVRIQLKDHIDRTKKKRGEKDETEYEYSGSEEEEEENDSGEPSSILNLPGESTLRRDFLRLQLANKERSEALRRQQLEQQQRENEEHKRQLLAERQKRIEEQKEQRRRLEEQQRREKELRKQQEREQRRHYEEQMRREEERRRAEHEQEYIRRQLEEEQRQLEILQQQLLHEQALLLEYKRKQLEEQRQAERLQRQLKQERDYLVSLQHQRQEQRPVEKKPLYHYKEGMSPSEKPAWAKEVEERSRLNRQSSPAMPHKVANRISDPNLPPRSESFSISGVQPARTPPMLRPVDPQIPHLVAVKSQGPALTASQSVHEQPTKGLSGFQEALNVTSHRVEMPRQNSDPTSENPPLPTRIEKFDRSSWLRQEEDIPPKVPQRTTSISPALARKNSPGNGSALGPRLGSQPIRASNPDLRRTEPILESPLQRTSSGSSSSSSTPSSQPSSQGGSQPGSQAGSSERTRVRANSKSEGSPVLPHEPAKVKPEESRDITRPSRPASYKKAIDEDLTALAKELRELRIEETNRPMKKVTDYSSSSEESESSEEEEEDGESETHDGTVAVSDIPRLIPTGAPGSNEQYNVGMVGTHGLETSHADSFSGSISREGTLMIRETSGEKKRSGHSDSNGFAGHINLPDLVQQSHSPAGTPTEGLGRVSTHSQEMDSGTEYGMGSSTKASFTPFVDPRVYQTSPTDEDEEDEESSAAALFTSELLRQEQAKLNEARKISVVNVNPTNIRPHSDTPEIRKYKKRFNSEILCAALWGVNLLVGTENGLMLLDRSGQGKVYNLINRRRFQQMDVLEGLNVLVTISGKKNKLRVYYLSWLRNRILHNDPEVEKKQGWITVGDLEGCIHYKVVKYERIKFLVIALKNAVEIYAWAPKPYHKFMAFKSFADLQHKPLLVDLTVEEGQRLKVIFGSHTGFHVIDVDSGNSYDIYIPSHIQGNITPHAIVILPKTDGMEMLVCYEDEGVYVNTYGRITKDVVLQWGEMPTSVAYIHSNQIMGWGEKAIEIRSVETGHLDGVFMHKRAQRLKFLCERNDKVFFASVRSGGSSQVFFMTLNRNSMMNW
# Sequence of Insulin receptor (P06213 28-758 limits assumed): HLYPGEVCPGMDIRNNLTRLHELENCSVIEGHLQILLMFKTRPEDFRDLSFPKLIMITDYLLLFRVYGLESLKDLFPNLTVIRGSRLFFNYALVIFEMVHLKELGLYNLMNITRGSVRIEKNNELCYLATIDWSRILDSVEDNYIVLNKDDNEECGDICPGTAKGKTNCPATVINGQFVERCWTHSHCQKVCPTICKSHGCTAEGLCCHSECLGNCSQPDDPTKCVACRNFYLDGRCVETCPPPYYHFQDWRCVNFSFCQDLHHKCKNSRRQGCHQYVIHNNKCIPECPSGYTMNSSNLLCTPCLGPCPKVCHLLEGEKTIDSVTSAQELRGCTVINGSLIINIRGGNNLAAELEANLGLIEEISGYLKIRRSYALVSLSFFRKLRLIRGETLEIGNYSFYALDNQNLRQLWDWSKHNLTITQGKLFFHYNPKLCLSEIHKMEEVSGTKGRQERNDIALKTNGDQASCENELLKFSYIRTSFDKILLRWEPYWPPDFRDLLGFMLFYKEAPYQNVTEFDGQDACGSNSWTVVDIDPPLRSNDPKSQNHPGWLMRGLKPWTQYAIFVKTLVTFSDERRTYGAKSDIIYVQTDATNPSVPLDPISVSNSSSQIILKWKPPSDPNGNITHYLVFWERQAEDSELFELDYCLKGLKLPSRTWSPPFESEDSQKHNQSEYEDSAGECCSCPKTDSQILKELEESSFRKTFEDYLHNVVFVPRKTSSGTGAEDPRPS
# Sequence of Insulin receptor (P06213 763-1382 limits assumed): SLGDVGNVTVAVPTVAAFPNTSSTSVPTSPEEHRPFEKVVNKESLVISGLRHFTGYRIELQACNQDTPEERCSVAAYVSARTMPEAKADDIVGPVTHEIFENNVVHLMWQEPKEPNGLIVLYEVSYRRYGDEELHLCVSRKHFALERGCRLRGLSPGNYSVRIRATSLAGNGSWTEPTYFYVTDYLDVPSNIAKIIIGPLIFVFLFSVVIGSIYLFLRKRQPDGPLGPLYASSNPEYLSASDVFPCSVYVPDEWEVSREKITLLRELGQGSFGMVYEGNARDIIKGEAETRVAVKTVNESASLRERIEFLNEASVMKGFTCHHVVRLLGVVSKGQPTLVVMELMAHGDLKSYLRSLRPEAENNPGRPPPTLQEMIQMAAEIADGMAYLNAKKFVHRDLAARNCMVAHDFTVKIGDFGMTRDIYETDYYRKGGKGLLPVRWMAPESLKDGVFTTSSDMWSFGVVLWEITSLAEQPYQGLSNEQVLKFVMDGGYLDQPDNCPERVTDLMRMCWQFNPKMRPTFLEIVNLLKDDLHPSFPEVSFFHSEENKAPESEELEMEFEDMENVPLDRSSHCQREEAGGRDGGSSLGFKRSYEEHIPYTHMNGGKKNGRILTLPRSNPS
# Sequence of Calcium/calmodulin-dependent protein kinase type II subunit gamma (Homo sapiens) (Q13555 whole entry): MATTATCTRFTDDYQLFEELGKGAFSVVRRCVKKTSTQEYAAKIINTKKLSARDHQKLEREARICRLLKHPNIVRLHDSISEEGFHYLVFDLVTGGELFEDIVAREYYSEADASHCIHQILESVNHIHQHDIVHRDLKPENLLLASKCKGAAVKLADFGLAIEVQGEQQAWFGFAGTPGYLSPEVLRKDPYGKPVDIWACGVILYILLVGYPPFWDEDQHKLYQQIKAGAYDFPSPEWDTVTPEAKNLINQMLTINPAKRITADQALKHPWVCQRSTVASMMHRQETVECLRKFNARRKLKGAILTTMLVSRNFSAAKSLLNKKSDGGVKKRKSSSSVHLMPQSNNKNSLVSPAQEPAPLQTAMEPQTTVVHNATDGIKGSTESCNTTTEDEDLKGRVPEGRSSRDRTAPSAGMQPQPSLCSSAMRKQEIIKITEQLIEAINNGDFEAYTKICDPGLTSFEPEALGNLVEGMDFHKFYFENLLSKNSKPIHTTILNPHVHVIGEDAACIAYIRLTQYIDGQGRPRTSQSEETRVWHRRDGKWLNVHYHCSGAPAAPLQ
smiles,measurement,setting,value
CCN(CC)CCCCNc1ncc2cc(-c3cc(OC)cc(OC)c3)c(NC(=O)NC(C)(C)C)nc2n1,% of control,[1],100%
same,% of control,[2],100%
Cc1ccc(-c2ccc3c(ccc4sc5c(c43)NC[C@@H](C)NC5=O)n2)cn1,% of inhibition,Insulin receptor,5%
Nc1cnc(N2CCc3cc(S(=O)(=O)Nc4c(F)cc(Cl)cc4F)cc(N4CCCC4=O)c32)nc1 [TP-020n],% of control,[3],100%
same,% of control,[4],100%
CN(C)CCCOc1ccc(-c2cc(NCCCn3cccn3)nc(S(C)(=O)=O)n2)cc1,dTM,[5],< 2 K
Cc1cc([C@@H](C)Nc2ccccc2C(=O)O)c2nc(N3CCOCC3)cc(=O)n2c1 [AZD-6482],% of control,[6],100%
CC[C@@H]1[C@H](F)C(=O)N[C@@H]1COc1nccc2cc(C(N)=O)c(OC)cc12 [ZIMLOVISERTIB],% of inhibition,[7],-8.5%
N#Cc1cccc(-c2c[nH]c3ncnc(N4CCOCC4)c23)c1,% of control,[8],45%
